Tested on: ATDC5 cells
Experiment: IGF1 stimulated MMP-9/MMP-13 expression in chondrocytes (quantitative real-time PCR)
Type: cell-based
Settings: preliminary dose finding experiments, free inhibitor, data not shown
Procedure: Here, we investigated the therapeutic role of the IGF1R inhibitor (NVP-AEW541) in PTOA development. NVP-AEW541 (IGF1Ri) was incorporated into the polyethylene glycol dimethacrylate (PEG-DMA) hydrogel carriers (microrods) for prolonged local delivery in the joint space following ACL rupture (ACLR). […] The left knee served as the control (CON). 1 day after the TCO, vehicle (Veh) or microrods loaded with inhibitor (IGF1Ri/rod) was injected into the injured knee. […] As determined by μCT, compared with the CON knee, ACLR decreased BV/TV (24%) in the subchondral bone, while the IGF1Ri/rod treatment (Tx) prevented the bone loss. […] As indicated by IHC, ACLR increased the number of PCNA positive articular chondrocytes and MMP-13 production in the Veh-treated injured knee, but these effects were blunted in the IGF1Ri-treated injured knee. Moreover, ACLR increased the production of VEGF, resulting in vessel formation within articular cartilage (as indicated by CD31) in the Veh -treated injured knee, but these effects were blocked in the IGF1Ri-treated injured knee.
FIG. 7. […] The mRNA levels of MMP-9 (upper panel) and MMP-13 (lower panel) were determined by quantitative real-time PCR. […] Results are expressed as percentage of L-19 (house keeper gene) expression (mean±SD) of triplicate determinations. *: p<0.05 IGF-1 treated cultures vs. vehicle treated cultures.

Cl.Cl.Nc1ncnc2c1c(-c1cccc(OCc3ccccc3)c1)cn2[C@H]1C[C@@H](CN2CCC2)C1 [NVP-AEW541, 7-[cis-3-(1-azetidinylmethyl)cyclobutyl]-5-[3-(phenylmethoxy)phenyl]-7H-pyrrolo[2,3-d]pyrimidin-4-amine, dihydrochloride]
blocking IGF1 stimulated MMP9 and MMP13 expression: highly effective
